Laboratory results from patent publication US10188615B2, “Alkoxy compounds for disease treatment” (Acucela Inc., priority 2007, dated 2019).
pIC50: −log10 of the molar value. Like-named read-outs stand apart in the source and are kept apart here.

Columns and labels:
[1] = target: recombinant human RPE65 and LRAT (Homo sapiens (Human), UniProt Q16518); experiment: Human in vitro isomerase inhibition assay; format: biochemical; conditions: Human in vitro Inhibition data; inhibition of 11-cis-retinol formation; HEK293 homogenate, all-trans-retinol about 20 μM, 37° C., one hour; given as ranges
recombinant human RPE65 and LRAT, sequence (Q16518 2-533): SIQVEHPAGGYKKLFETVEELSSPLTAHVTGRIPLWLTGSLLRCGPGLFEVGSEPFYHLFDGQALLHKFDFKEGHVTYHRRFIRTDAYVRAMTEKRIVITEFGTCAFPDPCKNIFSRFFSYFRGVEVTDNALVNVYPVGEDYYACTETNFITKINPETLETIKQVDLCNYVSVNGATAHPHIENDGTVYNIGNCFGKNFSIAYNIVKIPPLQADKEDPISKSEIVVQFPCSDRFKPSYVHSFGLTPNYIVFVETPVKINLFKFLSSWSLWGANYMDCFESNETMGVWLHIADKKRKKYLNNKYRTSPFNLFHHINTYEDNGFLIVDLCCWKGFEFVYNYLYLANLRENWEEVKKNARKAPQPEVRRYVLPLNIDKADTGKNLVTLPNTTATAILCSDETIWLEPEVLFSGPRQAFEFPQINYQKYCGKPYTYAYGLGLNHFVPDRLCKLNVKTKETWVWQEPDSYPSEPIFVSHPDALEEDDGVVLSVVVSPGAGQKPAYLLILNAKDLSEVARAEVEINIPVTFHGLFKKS
Method: The concentration dependent effect of the compounds disclosed herein on the retinol isomerization reaction was also evaluated with a recombinant human enzyme system. […] A homogenate of HEK293 cell clone expressing recombinant human RPE65 and LRAT were the source of the visual enzymes, and exogenous all-trans-retinol (about 20 μM) was used as the substrate. Recombinant human CRALBP (about 80 ug/mL) was added to enhance the formation of 11 cis-retinal. The 200 μL Bis-Tris Phosphate buffer (10 mM, pH 7.2) based reaction mixture also contains 0.5% BSA, and 1 mM NaPPi. In this assay, the reaction was carried out at 37° C. in duplicates for one hour and was terminated by addition of 300 μL methanol. The amount of reaction product, 11-cis-retinol, was measured by HPLC analysis following Heptane extraction of the reaction mixture. […] The ability of the numerous compounds disclosed herein to inhibit isomerization reaction is quantified and the respective IC50 value is determined.

isomerase = isomerase (Mus musculus (Mouse), UniProt Q91ZQ5); experiment: In vivo murine isomerase assay (recovery of 11-cis-retinal after photobleaching); parameters: species or system mice; conditions: for inhibition at 1 mg/kg: read-out: % Inhibition 1 mg/kg, 4 h; for ED50: in vivo inhibition of isomerase, Table 10
isomerase, sequence (Q91ZQ5 whole entry): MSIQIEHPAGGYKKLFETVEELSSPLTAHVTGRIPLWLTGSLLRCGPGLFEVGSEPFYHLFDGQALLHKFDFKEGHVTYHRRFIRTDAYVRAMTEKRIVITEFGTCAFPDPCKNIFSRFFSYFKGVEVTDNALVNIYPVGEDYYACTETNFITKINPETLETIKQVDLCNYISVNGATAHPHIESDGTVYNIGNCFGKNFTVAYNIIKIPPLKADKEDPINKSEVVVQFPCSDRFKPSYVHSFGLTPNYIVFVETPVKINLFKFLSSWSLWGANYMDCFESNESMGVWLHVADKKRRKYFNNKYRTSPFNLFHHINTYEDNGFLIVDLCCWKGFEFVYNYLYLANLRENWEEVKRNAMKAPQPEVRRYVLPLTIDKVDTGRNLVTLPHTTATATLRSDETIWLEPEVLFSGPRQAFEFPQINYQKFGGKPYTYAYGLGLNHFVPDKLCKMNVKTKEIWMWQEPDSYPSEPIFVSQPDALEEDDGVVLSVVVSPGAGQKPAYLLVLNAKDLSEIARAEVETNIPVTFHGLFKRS
Method: The capability of compounds described herein to inhibit isomerase was determined by an in vivo murine isomerase assay. Brief exposure of the eye to intense light (“photobleaching” of the visual pigment or simply “bleaching”) is known to photo-isomerize almost all 11-cis-retinal in the retina. The recovery of 11-cis-retinal after bleaching can be used to estimate the activity of isomerase in vivo. Delayed recovery, as represented by lower 11-cis-retinal oxime levels, indicates inhibition of isomerization reaction.
The mice were allowed to recover 2 hours in the dark. The animals were then sacrificed by carbon dioxide inhalation. Retinoids were extracted from the eye and the regeneration of 11-cis-retinal was assessed at various time intervals.
After the mice were sacrificed, the eyes were immediately removed and placed in liquid nitrogen for storage.
The eyes were placed in 500 μL of bis-tris propane buffer (10 mM, pH ˜7.3) and 20 µL of 0.8M hydroxile amine (pH-7.3). The eyes were cut up into small pieces with small iris scissors and then thoroughly homogenized at 30000 rpm with a mechanical homogenizer (Polytron PT 1300 D) in the tube until no visible tissue remained. 500 μL of methanol and 500 μL of heptane were added to each tube. The tubes were attached to a vortexer so that the contents were mixed thoroughly for 15 minutes in room temperature. The organic phase was separated from the aqueous phase by centrifugation for 10 min at 13K rpm, 4° C. 240 μL of the solution from the top layer (organic phase) was removed and transferred to clean 300 μl glass inserts in HPLC vials using glass pipette and the vials were crimped shut tightly.
Loading volume for each sample is 100 μl; detection wavelength is 360 nm. The area under the curve for 11-cis retinal oxime was calculated by Agilent Chemstation software and was recorded manually. Data processing was performed using Prizm software.
Positive control mice (no compound administered) were sacrificed fully dark-adapted and the eye retinoids analyzed. Light (bleached) control mice (no compound administered) were sacrificed and retinoids isolated and analyzed immediately after light treatment.
Mice were sacrificed 2 hours after bleaching, eyes were enucleated, and retinoid content was analyzed by HPLC.
Recovery control mice (vehicle-only treated) were light-treated and left to recover for 2 hours in the dark before sacrifice and analysis. Light control mice (vehicle only treated) were sacrificed for analysis immediately after photo-bleaching.

visual cycle isomerase = visual cycle isomerase (Bos taurus (Bovine), UniProt Q28175); experiment: Bovine in vitro isomerase inhibition assay (RPE microsome membranes)
visual cycle isomerase, sequence (Q28175 2-533): as the sequence (Q16518 2-533) above, with I2S, V135I, I154V, L299I, N320H, G321E, C426G counted along it
Method: The capability of compounds disclosed herein to inhibit the activity of a visual cycle isomerase was determined.
All tests were performed in duplicate.

[2] = Bovine in vitro Inhibition data, inhibition of 11-cis retinol formation, bovine RPE microsomes, 20 μM all-trans retinol, 37° C., 30 minutes, given as ranges

SMILES	inhibition at 1 mg/kg (isomerase) [%]	pIC50 [1]	further results
NCCOc1cccc(OCCO)c1 [Example 141, 2-(3-(2-Aminoethoxy)phenoxy)ethanol]	–	–	IC50 (μM) [1]: No detectable
NCCCc1cccc(OCC2CCCCC2)c1 [Example 1, 3-(3-(Cyclohexylmethoxy)phenyl)propan-1-amine]	68	–	pIC50 (visual cycle isomerase; [2]): ≥ 6.00
NCC[C@@H](O)c1cccc(OC[C@H]2CC[C@H](O)CC2)c1 [Example 172, (1,4-Trans)-4-((3-((R)-3-Amino-1-Hydroxypropyl)Phenoxy)Methyl)Cyclohexanol]	–	≥ 8.00	–
NCCOc1cccc(OCC2CCCCCC2)c1 [Example 9, 2-(3-(Cycloheptylmethoxy)phenoxy)ethanamine]	6	–	pIC50 (visual cycle isomerase; [2]): ≥ 6.00
Cc1ccc(COc2cccc(CCCN)c2)cc1 [Example 119, 3-(3-(4-Methylbenzyloxy)phenyl)propan-1-amine]	–	–	IC50 (μM) [1]: No detectable
NCCC(=O)c1cccc(OCC2CCCCC2)c1 [Example 5, 3-Amino-1-(3-(cyclohexylmethoxy)phenyl)propan-1-one]	–	–	ED50 (isomerase): 1 mg/kg; pIC50 (visual cycle isomerase; [2]): ≥ 6.00
NCCOc1cccc(OCc2ccccc2)c1 [Example 8, 2-(3-(Benzyloxy)phenoxy)ethanamine]	–	–	pIC50 (visual cycle isomerase): 5.00 to 6.00
CC(=O)NCCC(O)c1cccc(OCC2CCCCC2)c1 (centres unmarked) [Example 19, N-(3-(3-(cyclohexylmethoxy)phenyl)-3-hydroxypropyl)acetamide]	–	–	pIC50 (visual cycle isomerase): 5.00 to 6.00
NCCC(=O)c1cccc(OCC2CCCCCC2)c1 [Example 16, 3-amino-1-(3-(cycloheptylmethoxy)phenyl)propan-1-one]	60	–	pIC50 (visual cycle isomerase; [2]): ≥ 6.00
NCCC(O)c1cccc(OCC2CCC(F)(F)CC2)c1 (centres unmarked) [Example 169, 3-Amino-1-(3-((4,4-difluorocyclohexyl)methoxy)phenyl)propan-1-ol]	–	≥ 8.00	–
NCCCc1cccc(OCC2(O)CCCCCC2)c1 [Example 11, 1-((3-(3-aminopropyl)phenoxy)methyl)cycloheptanol]	–	–	pIC50 (visual cycle isomerase; [2]): ≥ 6.00
COC(=O)c1cc(CCCN)cc(OCC2CCCCC2)c1 [Example 170, Methyl 3-(3-aminopropyl)-5-(cyclohexylmethoxy)benzoate]	–	< 5.00	–
NCCOc1cccc(OCC2CCCCC2)c1 [Example 7, 2-(3-(Cyclohexylmethoxy)phenoxy)ethanamine]	17	–	ED50 (isomerase): 4.2 mg/kg; pIC50 (visual cycle isomerase; [2]): ≥ 6.00
C[C@H](CN)[C@@H](O)c1cccc(OCC2CCCCC2)c1 [Example 74, (1R,2R)-3-Amino-1-(3-(Cyclohexylmethoxy)Phenyl)-2-Methylpropan-1-Ol]	6	≥ 8.00	–
NCCC(O)c1cccc(OCC2CC3CCC2C3)c1 (centres unmarked) [Example 48, 3-Amino-1-(3-(bicyclo[2.2.1]heptan-2-ylmethoxy)phenyl)propan-1-ol]	47	≥ 8.00	–
NCCCc1cccc(OCC2CCCCCC2)c1 [Example 14, 3-(3-(Cycloheptylmethoxy)phenyl)propan-1-amine]	89	–	pIC50 (visual cycle isomerase; [2]): ≥ 6.00
CCC(O)(CC)COc1cccc(C(O)CCN)c1 (centres unmarked) [Example 30, 3-((3-(3-Amino-1-hydroxypropyl)phenoxy)methyl)pentan-3-ol]	57	≥ 8.00	–
COc1ccc(COc2cccc(CCCN)c2)cc1 [Example 121, 3-(3-(4-Methoxybenzyloxy)phenyl)propan-1-amine]	–	–	IC50 (μM) [1]: No detectable
NCC[C@@H](O)c1cccc(OC[C@H]2CC[C@@H](O)CC2)c1 [Example 171, (1,4-Cis)-4-((3-((R)-3-Amino-1-Hydroxypropyl)Phenoxy)Methyl)Cyclohexanol]	–	≥ 8.00	–
NCC[C@@H](O)c1cccc(OC[C@H]2CCCC[C@H]2O)c1 [Example 176, (1,2-cis)-2-((3-((R)-3-Amino-1-hydroxypropyl)phenoxy)methyl)cyclohexanol]	–	≥ 8.00	–

SMILES	inhibition at 1 mg/kg (isomerase) [%]	pIC50 [1]	further results
N=C(N)CC(O)c1cccc(OCC2CCCCC2)c1 (centres unmarked) [Example 130, 3-(3-(Cyclohexylmethoxy)phenyl)-3-hydroxypropanimidamide]	3	–	–
CCC(CC)COc1cccc([C@H](O)[C@H](C)CN)c1 [Example 72, (1R,2R)-3-Amino-1-(3-(2-ethylbutoxy)phenyl)-2-methylpropan-1-ol]	13	≥ 8.00	–
CCCCCOc1cccc(C(O)CCN)c1 (centres unmarked) [Example 87, 3-Amino-1-(3-(pentyloxy)phenyl)propan-1-ol]	–	≥ 8.00	–
NCCOc1cccc(OCC2(O)CCCCCC2)c1 [Example 18, 1-((3-(2-Aminoethoxy)Phenoxy)Methyl)Cycloheptanol]	–	–	pIC50 (visual cycle isomerase): 5.00 to 6.00
C[C@@H](CN)[C@H](O)c1cccc(OCC2CCCCC2)c1 [Example 73, (1S,2S)-3-Amino-1-(3-(Cyclohexylmethoxy)Phenyl)-2-Methylpropan-1-Ol]	23	–	–
NCCCc1cccc(OCC2(O)CCCCC2)c1 [Example 10, 1-((3-(3-Aminopropyl)phenoxy)methyl)cyclohexanol]	–	–	pIC50 (visual cycle isomerase; [2]): ≥ 6.00
CCC(CC)COc1cccc(C(O)CCN)c1 (centres unmarked) [Example 45, 3-Amino-1-(3-(2-ethylbutoxy)phenyl)propan-1-ol]	98	≥ 8.00	–
NCC(O)Cc1cccc(OCC2CCCCC2)c1 (centres unmarked) [Example 6, 1-Amino-3-(3-(cyclohexylmethoxy)phenyl)propan-2-ol]	–	–	pIC50 (visual cycle isomerase; [2]): ≥ 6.00
COCCOCCOCC(=O)NCCC(O)c1cccc(OCC2CCCCC2)c1 (centres unmarked) [Example 77, N-(3-(3-(Cyclohexylmethoxy)phenyl)-3-hydroxypropyl)-2-(2-(2-methoxyethoxy)ethoxy)acetamide]	22	–	–
C[C@H](CN)[C@@H](O)c1cccc(OCC2CCCC2)c1 [Example 56, (1R,2R)-3-Amino-1-(3-(cyclopentylmethoxy)phenyl)-2-methylpropan-1-ol]	10	≥ 8.00	–
CCCC(CCC)COc1cccc([C@H](O)[C@H](C)CN)c1 [Example 55, (1R,2R)-3-Amino-2-methyl-1-(3-(2-propylpentyloxy)phenyl)propan-1-ol]	82	≥ 8.00	–
NCCOc1cccc(OCCc2ccccc2)c1 [Example 47, 2-(3-Phenethoxyphenoxy)ethanamine]	6	–	–
NCCC(O)c1cccc(OCC2CCCC2)c1 (centres unmarked) [Example 35, 3-Amino-1-(3-(Cyclopentylmethoxy)Phenyl)Propan-1-Ol]	95	≥ 8.00	–
COCCCCOc1cccc(C(O)CCN)c1 (centres unmarked) [Example 88, 3-Amino-1-(3-(4-methoxybutoxy)phenyl)propan-1-ol]	78	≥ 8.00	–
CC(C)CCOc1cccc(C(O)CCN)c1 (centres unmarked) [Example 107, 3-Amino-1-(3-(isopentyloxy)phenyl)propan-1-ol]	62	–	–
NCC[C@@H](O)c1cccc(OC[C@@H]2CCCC[C@H]2O)c1 [Example 175, (1,2-trans)-2-((3-((R)-3-Amino-1-hydroxypropyl)phenoxy)methyl)cyclohexanol]	–	≥ 8.00	–
NCCC(O)c1cccc(OCC2CCC2)c1 (centres unmarked) [Example 34, 3-Amino-1-(3-(cyclobutylmethoxy)phenyl)propan-1-ol]	–	≥ 8.00	–
NCCCc1cccc(OCc2ccc(Cl)cc2)c1 [Example 120, 3-(3-(4-Chlorobenzyloxy)phenyl)propan-1-amine]	–	–	IC50 (μM) [1]: No detectable
NCCS(=O)(=O)c1cccc(OCC2CCCCC2)c1 [Example 125, 2-(3-(Cyclohexylmethoxy)phenylsulfonyl)ethanamine]	4	–	–
CN(C)CCC(=O)c1cccc(OCC2CCCCC2)c1 [Example 182, 1-(3-(Cyclohexylmethoxy)phenyl)-3-(dimethylamino)propan-1-one]	–	< 5.00	–
